Test results: ChEMBL document CHEMBL6083234, “Discovery of novel 1,4-dicarbonylthiosemicarbazides as DNA gyrase inhibitors for the treatment of MRSA infection” (Eur J Med Chem, 2024)
pIC50: −log10 of the molar value. In brackets after ≈: the same amount, converted by molar mass.

Key:
[1] = tested on: Staphylococcus aureus; assay: Antibacterial activity against Staphylococcus aureus clinical isolates incubated for 18 hrs by Mueller-Hinton broth based assay; assay type: functional
[2] = biological target: DNA gyrase (Staphylococcus aureus, UniProt P0A0K8+P20831); assay: Inhibition of Staphylococcus aureus DNA gyrase using supercoiled pBR322 as substrate preincubated for 1 hrs followed by proteinase K addition and measured after 30 mins by agarose gel electrophoresis; assay type: protein-complex assay
[3] = biological target: Topoisomerase IV (Staphylococcus aureus, UniProt P0C1S7+P0C1U9); assay: Inhibition of Staphylococcus aureus DNA topoisomerase 4 using linear pBR322 as substrate preincubated for 10 mins followed by ATP addition and measured after 1 hrs ATP hydrolysis assay; assay type: protein-complex assay
Topoisomerase IV, sequence (P0C1U9 whole entry): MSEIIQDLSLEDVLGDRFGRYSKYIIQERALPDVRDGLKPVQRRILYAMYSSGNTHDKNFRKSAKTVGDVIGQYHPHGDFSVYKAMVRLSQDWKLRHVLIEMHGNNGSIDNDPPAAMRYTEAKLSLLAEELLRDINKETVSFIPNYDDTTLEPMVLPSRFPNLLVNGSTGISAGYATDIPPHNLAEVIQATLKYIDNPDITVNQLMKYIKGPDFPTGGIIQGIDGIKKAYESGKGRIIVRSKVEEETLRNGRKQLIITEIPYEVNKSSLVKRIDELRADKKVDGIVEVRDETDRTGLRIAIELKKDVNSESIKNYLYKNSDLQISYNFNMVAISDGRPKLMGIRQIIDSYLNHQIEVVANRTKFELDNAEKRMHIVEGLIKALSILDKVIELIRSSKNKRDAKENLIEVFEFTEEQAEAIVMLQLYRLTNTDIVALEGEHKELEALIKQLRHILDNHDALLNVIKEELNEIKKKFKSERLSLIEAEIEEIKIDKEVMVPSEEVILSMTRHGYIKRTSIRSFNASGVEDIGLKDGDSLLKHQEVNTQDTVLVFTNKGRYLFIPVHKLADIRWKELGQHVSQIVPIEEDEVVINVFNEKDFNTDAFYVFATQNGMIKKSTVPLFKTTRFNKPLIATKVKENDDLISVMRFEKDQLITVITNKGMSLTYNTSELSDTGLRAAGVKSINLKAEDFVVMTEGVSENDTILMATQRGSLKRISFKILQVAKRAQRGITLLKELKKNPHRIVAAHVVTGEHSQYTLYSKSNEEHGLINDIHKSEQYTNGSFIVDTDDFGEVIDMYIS
Topoisomerase IV, sequence (P0C1S7 whole entry): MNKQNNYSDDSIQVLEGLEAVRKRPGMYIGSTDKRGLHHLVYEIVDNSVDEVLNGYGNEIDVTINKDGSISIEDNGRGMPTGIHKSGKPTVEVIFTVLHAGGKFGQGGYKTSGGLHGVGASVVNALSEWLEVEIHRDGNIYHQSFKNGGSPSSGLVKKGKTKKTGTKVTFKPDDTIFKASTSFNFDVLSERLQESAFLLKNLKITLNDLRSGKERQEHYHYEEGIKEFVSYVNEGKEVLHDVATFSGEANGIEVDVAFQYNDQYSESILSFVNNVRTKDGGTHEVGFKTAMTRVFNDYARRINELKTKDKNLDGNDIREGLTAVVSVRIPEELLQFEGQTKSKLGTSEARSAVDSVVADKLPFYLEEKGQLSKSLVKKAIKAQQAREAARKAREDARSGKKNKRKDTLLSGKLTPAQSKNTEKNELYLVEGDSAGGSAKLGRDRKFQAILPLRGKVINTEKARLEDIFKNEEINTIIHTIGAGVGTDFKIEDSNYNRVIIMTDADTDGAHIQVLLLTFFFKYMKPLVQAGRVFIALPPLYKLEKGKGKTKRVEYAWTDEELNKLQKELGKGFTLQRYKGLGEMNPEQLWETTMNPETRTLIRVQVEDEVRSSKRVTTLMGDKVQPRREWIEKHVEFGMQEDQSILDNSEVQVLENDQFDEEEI

DNA gyrase, sequence (P0A0K8 whole entry): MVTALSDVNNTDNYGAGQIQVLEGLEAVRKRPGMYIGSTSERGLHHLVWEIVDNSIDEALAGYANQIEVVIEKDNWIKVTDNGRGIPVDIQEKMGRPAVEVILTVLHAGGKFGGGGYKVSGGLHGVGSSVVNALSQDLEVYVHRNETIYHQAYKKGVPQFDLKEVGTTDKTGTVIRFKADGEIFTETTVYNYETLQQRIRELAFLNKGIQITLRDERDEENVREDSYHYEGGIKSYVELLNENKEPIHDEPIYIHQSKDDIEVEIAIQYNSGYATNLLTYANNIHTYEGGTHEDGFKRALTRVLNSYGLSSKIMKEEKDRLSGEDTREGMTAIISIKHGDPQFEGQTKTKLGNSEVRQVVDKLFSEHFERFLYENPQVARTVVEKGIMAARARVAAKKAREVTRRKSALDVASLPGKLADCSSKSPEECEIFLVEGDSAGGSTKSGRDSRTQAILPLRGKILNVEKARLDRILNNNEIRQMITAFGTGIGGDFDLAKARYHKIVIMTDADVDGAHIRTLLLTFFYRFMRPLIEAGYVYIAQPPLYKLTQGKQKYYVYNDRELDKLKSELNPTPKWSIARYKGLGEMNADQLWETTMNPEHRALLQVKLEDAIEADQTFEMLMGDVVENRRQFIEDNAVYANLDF
DNA gyrase, sequence (P20831 whole entry): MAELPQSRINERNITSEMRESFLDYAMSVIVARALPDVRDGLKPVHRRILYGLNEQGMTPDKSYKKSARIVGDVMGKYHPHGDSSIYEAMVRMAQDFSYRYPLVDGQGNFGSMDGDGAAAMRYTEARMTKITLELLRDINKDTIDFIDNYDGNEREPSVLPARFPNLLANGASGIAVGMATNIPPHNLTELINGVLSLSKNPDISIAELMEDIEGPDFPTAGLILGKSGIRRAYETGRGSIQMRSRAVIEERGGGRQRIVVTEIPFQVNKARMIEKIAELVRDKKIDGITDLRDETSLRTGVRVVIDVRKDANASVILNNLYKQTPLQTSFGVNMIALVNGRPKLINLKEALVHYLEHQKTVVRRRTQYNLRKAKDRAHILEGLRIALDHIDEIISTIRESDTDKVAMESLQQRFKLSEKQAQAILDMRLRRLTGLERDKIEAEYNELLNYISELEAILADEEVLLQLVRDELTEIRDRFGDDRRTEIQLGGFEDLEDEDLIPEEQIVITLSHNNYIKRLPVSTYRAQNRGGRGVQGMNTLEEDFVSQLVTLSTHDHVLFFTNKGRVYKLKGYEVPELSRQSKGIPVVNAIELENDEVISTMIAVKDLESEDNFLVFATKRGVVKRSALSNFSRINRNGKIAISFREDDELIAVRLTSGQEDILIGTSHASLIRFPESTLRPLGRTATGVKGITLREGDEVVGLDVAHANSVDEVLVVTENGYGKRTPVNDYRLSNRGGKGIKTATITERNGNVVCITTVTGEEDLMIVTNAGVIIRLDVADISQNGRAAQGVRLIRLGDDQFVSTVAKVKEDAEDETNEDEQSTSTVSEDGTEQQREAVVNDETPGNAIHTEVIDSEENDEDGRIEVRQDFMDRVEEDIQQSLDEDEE

O=C(NC(=S)NNC(=O)c1cc2ccccc2[nH]1)c1ccccc1 gave an MIC [1] of 8 µg/mL (≈ 23.6 µM), a pIC50 [2] of less than 4.30 and a pIC50 [3] of less than 5.00.
